Test results taken from patent US20120065123A1, “Synthetic Antibodies” (priority 2009, published 2012).
Each block holds one substance with its values, some of them ahead of it. Bridges are numbered along the chain shown (N, C = ends). Roman numbers before positions name the chains, in order. Where no end group is shown, it is not given here. The star is where a group is joined. StBu = CC(C)(C)S*

Assays:
pooled human transferrin = target: T1, pooled human transferrin (Homo sapiens, UniProt P02787); assay: High throughput SPR screening of peptides (Biacore A-100); assay type: binding; details: purified peptide, several concentrations; read-out: KD with respect to transferrin
T1 construct: purchased Sigma
Procedure: Peptide affinity element candidates were screened against target proteins immobilized on the SPR surface. Each target protein was modified with biotin using the following procedure: NHS-LC-LC-Biotin (Pierce Biotechnology) was re-suspended in DMSO at a concentration of 7.13 mM. Each protein was prepared in 100 mM PBS pH 7.5 at a concentration of ˜50 μM. NHS-LC-LC-Biotin was then added to the protein solution at a 3:1 or 5:1 molar ratio. The reaction was performed for 2 hours at room temperature and the protein sample was analyzed by MALDI mass spectrometry to determine the number of biotin molecules added per molecule of protein. Excess NHS-LC-LC-Biotin was removed using a 3 kDa spin filter. The target proteins for which data is shown in this example were pooled human transferrin (Sigma) and purified bovine ubiquitin.
A Biacore A-100 Surface Plasmon Resonance (SPR) system was used to measure the binding response of each peptide to several different target proteins immobilized on a gold surface. […] Each biotinylated protein was injected over a single spot and the amount of protein captured was measured. […]
Data analysis was performed using the A-100 Evaluation software package that analyzes and filters the data using a variety of measures of quality control for each sensorgram. […] In this manner a relative measure of the specificity of binding for each peptide was determined. […]

Transferrin [1] = target: T2, Transferrin (Homo sapiens, UniProt P02787); assay: SPR solution phase KD of candidate affinity elements, transferrin immobilized (Biacore T100); assay type: binding; details: steady-state response, 25° C., PBST
Procedure: Transferrin 25 μg/ml in immobilization buffer selected for correct pH was then applied 302 at a flow rate of 5 to 10 μl/min for a contact time of about 5 to 10 minutes, allowing the amine functionality on the transferrin 308 to displace the activated NHS ester and bond to the surface via an amide bond. Finally, ethylene diamine (1M ethylene diamine-HCl at pH 8.5) was applied 304 at a flow rate of 5 to 10 μl/min for a contact time of about 6 to 7 minutes to deactivate any remaining reactive groups on the dextran chip surface. Flow rates and contact times are adjusted as necessary to provide the surface concentration of target desired for the intended application, and may vary by target. In general, for evaluating whether binding occurs, it is preferable to immobilize a relatively large quantity of target, and higher flow rates and/or longer contact times may be used. For determining kinetics, it is preferable to limit the amount of target immobilized so as to minimize rebinding and avidity effects, and lower flow rates and/or contact times may be used.
Candidate affinity elements for the transferrin synbody TRF19, TRF21, TRF23, TRF24, TRF25, and TRF26 were individually evaluated for solution phase KD with respect to transferrin by SPR analysis. Because the off rates for these polypeptides were very high, KD values were estimated by measuring steady-state response for at least five concentrations in a two-fold dilution series, each concentration tested in duplicate. For each experiment, response data were processed using a reference surface to correct for bulk refractive index changes and any non-specific binding. Data were also double referenced using responses from blank running buffer injections. Each experiment was conducted at 25° C. using PBST (0.01M Phosphate Buffered Saline, 0.138M NaCl, 0.0027M KCl, 0.05% surfactant Tween20, pH 7.4) as the running buffer on a Biacore T100 instrument. Analytes were injected for 60 s at a flow rate of 30 μl/min. The antigen surfaces were regenerated with 30 s consecutive pulses of NaOH/NaCl (50 mM NaOH in 1M NaCl) and Glycine (10 mM glycine-HCl, pH 2.5).

Transferrin [2] = target: T2, Transferrin; assay: SPR analysis of peptide pairs for binding to distinct sites on target; details: peptides applied in 1:1 mixtures in pairs
Source text: The transferrin target was immobilized on a Biacore T100 SPR chip, and candidate polypeptides were applied in 1:1 mixtures in pairs and response data obtained, in accordance with the methods described in Example 4 above. As illustrated in FIGS. 12A-D, upon flowing candidate polypeptides over the immobilized target, ideally one polypeptide applied alone would bind to a first binding site on the target and produce a first characteristic SPR response level (FIG. 12A), the other polypeptide would bind to a second, distinct binding site on the target, producing a second characteristic response level (FIG. 12B), and a mixture of the two polypeptides together (at the same concentrations as before) would produce a response level approximating the sum of the response levels produced by each polypeptide alone, as the polypeptides bind to distinct binding sites (FIG. 12C).

Transferrin [3] = target: T2, Transferrin; assay: Peptide microarray ranking, labeled transferrin with E. coli lysate competitor; assay type: binding
Procedure: Several polypeptides were identified as candidate affinity elements for synbodies against an arbitrarily chosen protein target, transferrin, by incubating transferrin on the polypeptide microarray in the presence of E. coli lysate competitor. Transferrin was randomly direct-labeled at free amines with Alexa™ 555, and E. coli lysate was randomly direct-labeled at free amines with Alexa™ 647. Three replicate arrays were passivized by applying a mixture of BSA and mercaptohexanol for one hour. The arrays were blocked with unlabelled E. coli lysate for one hour, then washed three times with TBST (0.05% Tween) followed by three times with water. A mixture of labeled transferrin and labeled E. coli lysate was applied to the three replicate arrays and incubated for three hours. The arrays were again washed three times with TBST (0.05% Tween) followed by three times with water, and scanned at 555 nm and 647 nm using an array reader. Polypeptides were ranked as candidates for inclusion as affinity elements of synbodies by computing a score for each polypeptide equal to the mean raw 555 nm intensity over the six replicate features, squared, divided by the mean raw 647 nm intensity over the six replicate features. This simple scoring function tends to favor candidate polypeptides that bind at least moderate affinity, since otherwise the 555 nm intensity would be relatively lower, and that are relatively specific, since otherwise the 647 nm intensity would be relatively higher and contribute to a relatively lower score. Many variations of this ranking and identification process can be used, such as, by way of non-limiting examples, two-color comparisons against other competitors; comparisons with data taken in separate experiments with respect to other targets; and use of scoring functions taking into account other factors, employing other functional relationships, and/or involving statistical analysis and/or preprocessing of data and/or correcting for background fluorescence and/or other factors affecting the accuracy of the measured intensities. Ten polypeptides (Table 1) were identified for further evaluation for use as affinity elements in synbodies by choosing the polypeptides having the highest score (one polypeptide was rejected as difficult to synthesize, so the polypeptides chosen were ten of those having the eleven highest scores).
After preparation of the array in accordance with the methods previously described in Example 2, the array was washed one time for five minutes in 7.33% acetonitrile, 37% isopropanol, 0.55% trifluoroacetic acid, and 55% water. Alexa 555 labeled target protein transferrin was applied, together with Alexa 647 labeled E. coli lysate competitor, to the prewashed array and to an identical array without organic prewash. […] 5,010 on the array without organic prewash, but ranked no. 9601 on the prewashed array. Conversely, peptide TRF-21, shown by SPR analysis to be a relatively strong binder of transferrin, rose in rank from 84 on the non-prewashed array to rank no. 5 on the prewashed array.

TNF-α = TNF-α (Homo sapiens, UniProt P01375); assay: SPR verification of candidate TNF-α binding synbodies (Biacore T-100); details: 1.25 μM to 9.8 nM
Procedure: Candidate TNF-α binding synbodies were screened by surface plasmon resonance (SPR) on a Biacore T-100 SPR instrument to verify binding for TNF-α. A CM5 chip was activated using standard amine coupling chemistry and TNF-α was immobilized. Each synbody was prepared in HBS-N buffer with excess carboxymethyl dextran added to the running buffer to minimize non-specific binding to the chip surface. A concentration series of each synbody was prepared where the concentrations ranged from 1.25 μM to 9.8 nM.

[4] = target: Tumor Necrosis Factor-alpha (TNF-α) (Homo sapiens, UniProt P01375); assay: Chromatographic affinity screening on protein-coupled pipette tips with MALDI readout; assay type: binding; details: 500 nM each synbody in E. Coli Lysate
Procedure: The target proteins, Transferrin (TRF) and Tumor Necrosis Factor-alpha (TNF-α), were each covalently attached to pipette tips (one protein per pipette tip) containing carboxymethyl dextran matrix (Intrinsic Bioprobes, Tempe, Ariz.) using standard amine coupling chemistry. The unmodified tips were first washed with 0.5 M HCl followed by acetone. Each tip was activated using a 50 mg/mL solution of […] (CDI) in N-methyl-pyrolidone (NMP). Each tip was washed with NMP to remove excess CDI. Each protein was prepared as a 50 μg/mL solution in 100 mM sodium acetate pH 5.0 and cycled through a CDI activated tip for 30 minutes. Un-reacted CDI in the tip was then quenched with the addition of 1.5 M ethanolamine pH 8.5 and then washed extensively with HBS-N buffer. The protein-coupled tips were then stored in HBS-N buffer at 4° C. Negative control tips were prepared in the same manner except that no protein was added to the sodium acetate solution during the protein coupling step.
A library of 14 candidate synbodies (Table 9) was prepared by making 12 μM stock solutions in 1× phosphate buffered saline (PBS) of each HPLC purified synbody and […] of each stock solution was added to 600 μL of E. Coli Lysate that had been treated with a protease inhibitor. Thus the final concentration of each synbody was 500 nM.
A negative control pipette tip (blank tip), a TRF tip, and a TNF-α tip, were washed with 0.1% sodium dodecyl sulfate (SDS) to remove any non-covalently bound protein and then washed with HBS buffer. The tips were then incubated for 15 minutes in 150 μL of the synbody library. Each tip was then washed 5 times in 150 μL of HBS-N. This step was then repeated and each tip was washed 5 times in 150 μL of 0.25 M NaCl. Each tip was then washed 5 times in 150 μL of Milli-Q water and this step was repeated. […]
Each elution sample was spotted onto a MALDI plate and analyzed in reflectron mode on a Bruker Daltonics UltraFlex III TOF/TOF MALDI Mass Spectrometer.

[5] = tested on: 8,000 human proteins (GST fusion); assay: Protein microarray screen (Invitrogen Protoarray Human Protein Microarray, 8,000 features); assay type: binding; details: fluorescence intensity
Procedure: Two biotinylated anti-TRF synbodies (SYN23-26 and SYN 21-22) were applied to a protein microarray having 8,000 features (Invitrogen Protoarray Human Protein Microarray v. 4.0 for immune response biomarker profiling), each feature comprising a distinct human protein (GST fusion) adsorbed to a nitrocellulose coated slide. Application of the synbodies to the microarray was performed in accordance with manufacturer instructions: (see ProtoArray Human Protein Microarray, Invitrogen, Catalog no. PAH052401, Version B, 15 Dec. 2006, 25-0970, Users Manual.) After blocking the array with 1% BSA/PBS/0.1% Tween for 1 hour at 4C with gentle shaking, 120 μl of probing buffer (1×PBS, 5 mM mgCl2, 0.5 mM DTT, 0.05% Triton X-100, 5% glycerol, 1% BSA) with synbody was applied to the array. The prescribed cover slip was placed over the array and adjusted to remove air bubbles. The array was incubated in a 50 ml conical tube, printed side up, for 1.5 hours at 4C without shaking. The array was then removed from the conical tube inserted diagonally into the array chamber, kept on ice. 8 ml probing buffer was added to the chamber wall. The cover slip was removed and the array was incubated in probing buffer for 1 minute on ice. […] The array was dried in the dark for 60 minutes at room temperature, after which it was scanned using a fluorescent microarray scanner and data was taken and analyzed.

T2 sequence (P02787 20-698): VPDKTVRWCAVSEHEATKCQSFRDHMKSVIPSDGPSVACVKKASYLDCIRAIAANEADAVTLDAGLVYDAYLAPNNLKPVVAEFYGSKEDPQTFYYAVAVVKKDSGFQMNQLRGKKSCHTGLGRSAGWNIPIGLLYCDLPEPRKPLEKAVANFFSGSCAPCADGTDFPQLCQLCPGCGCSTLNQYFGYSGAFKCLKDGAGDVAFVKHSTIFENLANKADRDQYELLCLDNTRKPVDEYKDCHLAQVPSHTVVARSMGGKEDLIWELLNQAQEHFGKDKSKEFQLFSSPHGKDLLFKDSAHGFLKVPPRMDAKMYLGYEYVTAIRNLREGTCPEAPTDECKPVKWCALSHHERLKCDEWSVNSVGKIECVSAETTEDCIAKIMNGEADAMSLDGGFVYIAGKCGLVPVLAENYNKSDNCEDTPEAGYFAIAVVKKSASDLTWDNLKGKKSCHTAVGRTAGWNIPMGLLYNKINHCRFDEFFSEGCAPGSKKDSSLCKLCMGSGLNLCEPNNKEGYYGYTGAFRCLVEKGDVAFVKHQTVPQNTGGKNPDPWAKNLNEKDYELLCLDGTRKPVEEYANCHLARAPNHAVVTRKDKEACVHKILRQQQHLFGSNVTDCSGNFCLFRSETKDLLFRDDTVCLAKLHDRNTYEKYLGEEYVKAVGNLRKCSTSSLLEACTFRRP
TNF-α, sequence (P01375 77-233 limits assumed, species assumed): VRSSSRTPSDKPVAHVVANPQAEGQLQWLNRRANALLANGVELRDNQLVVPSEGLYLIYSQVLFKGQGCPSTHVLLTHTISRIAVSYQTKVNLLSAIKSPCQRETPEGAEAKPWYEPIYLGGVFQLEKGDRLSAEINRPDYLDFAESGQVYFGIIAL
Tumor Necrosis Factor-alpha (TNF-α), sequence (P01375 77-233 limits assumed, species assumed): as above
T1 sequence (P02787 20-698): as the sequence (P02787 20-698) above

Kd (pooled human transferrin): 78.9 ± 27 µM
Substance: ARDLLIQKNSGQDVDHRGSC [TRF101]

Kd (Transferrin [1]): ~50 µM | binding to distinct sites on transferrin (Transferrin [2]): bind distinct sites on transferrin | Rank -- prewash (Transferrin [3]; array with organic prewash): 2091 | Rank - non-prewash (Transferrin [3]; array without organic prewash): 2722
Substance: FRGWAHIFFGPHVIYRGGSC [TRF23]

Further lines, the substance ahead of its results:

Substance: TNF1-TNF10-KC-stBu: lysine-linked synbody (peptide 1 FRGWAHIFFGPHVIYRGGSGKC(StBu); peptide 2 MKSIIPMSVAQHQGPIKGSG; not fully specified)
binding to TNF-α (sensorgrams) (TNF-α): relatively strong binding kinetics | MALDI peak in TNF-α tip elution (retention by target) [4]: showed a peak

Substance: I: AHKVVPQRQIRHAYNRYGSGKC / II: FRGWAHIFFGPHVIYRGGSG (amide I:21-II:C) [SYN23-26]
highest affinity target from a library of 8,000 [5]: PCCA

Substance: TNF1-TNF4-KC-stBu: lysine-linked synbody (peptide 1 FMNYPIKVPILVVPIGRGSGKC(StBu); peptide 2 MKSIIPMSVAQHQGPIKGSG; not fully specified)
binding to TNF-α (sensorgrams) (TNF-α): no binding | MALDI peak in TNF-α tip elution (retention by target) [4]: no peak was observed
